The results in this text go back to patent EP0602814A1, “Crystal forms of optically active isoindolines and their use” (TAKEDA CHEMICAL INDUSTRIES, LTD., priority 1992, dated 1994).

Each structure is given as a SMILES string.

Experiment [1] concerns Male rats (SD/JCL). Kind of experiment: Antianxiety action (Vogel method, anticonflict water drinking test). The class given is in vivo. The note with it: for Minimum Effective Dose (MED): rats; for antianxiety action stronger than that of the racemic compounds: ratio of MED of the racemic compound to MED of the optically active compound (Table 2).
In experiment [2] the target is benzodiazepine receptor. Nature of the experiment: [3H]diazepam binding to benzodiazepine receptor (crude mitochondrial fraction of cerebral cortex). Also on record: species or system male SD rats. The note with it: inhibition of ³H-diazepam (2 nM) binding by 50%, 4 °C, 20 minutes, Tris-HCl pH 7.4; read-out: IC₅₀. The procedure:
The affinity of the compound of the present invention to a benzodiazepine receptor was investigated using radioactive [³H] diazepam.
Capability of specific binding to a benzodiazepin receptor was determined in accordance with the method described in the literature [Nature, 266, 732 (1977); European J. Pharmacol., 48, 263 (1978)]. Specifically, a crude mitochondrial fraction obtained from the cerebral cortex of male SD rats at 9 to 10 weeks of age was suspended in 50 mM Tris-HCL buffer (pH 7.4), and incubated, together with several concentrations of the subject drug and ³H-diazepam (final concentration 2 nM), at 4 °C for 20 minutes. This suspension was then filtered through a Whatman GF/B glass fiber filter, and the ³H-diazepam radioactivity on the filter was measured using a liquid scintillation counter. The concentration of the subject drug at which ³H-diazepam binding was inhibited by 50% was taken as the IC₅₀ value.

Turning to `O=C(C[C@H]1c2ccccc2C(=O)N1c1ccc2ccc(Cl)nc2n1)N1CCC(O)CC1` [Example 3, (S)-(+)-2-(7-chloro-1,8-naphthylidin-2-yl)-3-[(4-hydroxypiperidin-1-yl)carbonylmethyl]isoindolin-1-one], the “Minimum Effective Dose (MED)” value in experiment [1] (i.p., Vogel method) is on record as “Compound in Example 3 5.0 mg/kg, i.p”. In experiment [1], the “antianxiety action stronger than that of the racemic compounds” value turned out to be 4 times. Moreover, in experiment [2], the IC50 came to 0.92 nM.

With `O=C(CC1c2ccccc2C(=O)N1c1ccc2ccc(Cl)nc2n1)N1CCC2(CC1)OCCO2` (racemic) [Racemic compound of Example 1, 2-(7-chloro-1,8-naphthylidin-2-yl)-3-[(1,4-dioxa-8-azaspiro[4.5]dec-8-yl)carbonylmethyl]isoindolin-1-one, reference compound], the “Minimum Effective Dose (MED)” value in experiment [1] (p.o., 30 minutes after dosing, water drinking frequency in 3 minutes) is on record as 10 mg/kg, p.o. In addition, in experiment [2], the IC50 was 0.38 nM.

On to `O=C(CC1c2ccccc2C(=O)N1c1ccc2ccc(Cl)nc2n1)N1CCC(O)CC1` (racemic) [Racemic compound of Example 3, 2-(7-chloro-1,8-naphthylidin-2-yl)-3-[(4-hydroxypiperidin-1-yl)carbonylmethyl]isoindolin-1-one, reference compound], for which the “Minimum Effective Dose (MED)” value in experiment [1] (i.p., Vogel method) was 20 mg/kg, i.p. In experiment [2], the IC50 turned out to be 2.14 nM.

For `O=C(C[C@H]1c2ccccc2C(=O)N1c1ccc2ccc(Cl)nc2n1)N1CCC2(CC1)OCCO2` [Example 1, (S)-(+)-2-(7-chloro-1,8-naphthylidin-2-yl)-3-[(1,4-dioxa-8-azaspiro[4.5]dec-8-yl)carbonylmethyl]isoindolin-1-one], the “antianxiety action stronger than that of the racemic compounds” value in experiment [1] amounted to 8 times. Also, in experiment [2], the IC50 worked out at 0.32 nM.
